Paper PMC5743070 (The Journal of Biological Chemistry, 2017)
Like-named read-outs stand apart in the source and are kept apart here.

How the values were obtained:
TTD (UHRF1_121–286) = target: T1, TTD (UHRF1_121–286) (Homo sapiens, UniProt Q96T88); assay: (1H-15N) HSQC NMR titration of TTD; type: binding; conditions: for Kd: HSQC titration, ~250 μM TTD, 5% DMSO, pH 7.5, 25 °C
T1 construct: UHRF1_121–286 corresponding to the TTD; made in house
T1 sequence (Q96T88 121-286): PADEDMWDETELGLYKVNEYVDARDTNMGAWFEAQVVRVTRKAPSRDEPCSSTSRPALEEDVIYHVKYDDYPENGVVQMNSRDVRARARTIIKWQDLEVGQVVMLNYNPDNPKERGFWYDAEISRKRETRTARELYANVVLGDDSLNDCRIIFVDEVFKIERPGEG
Source text: We designed a fragment library containing 2,040 compounds that was initially screened against isolated TTD (UHRF1_121–286) using a fluorescence polarization (FP) assay that tracked the displacement of a N-terminally tagged H3K9me3 peptide (H3K9me3(1–25)). From this screen, eight putative TTD-binding hits were identified. […] Because of limited commercial availability of the tricyclic amine, we focused only on BPC. The binding of this compound occurs close to (or within) the Arg^296-binding pocket; we observe significant perturbation of Trp^238 and Phe^278 resonances that form part of the pocket, and in Gly^236, which is directly adjacent to it (Fig. 4A and supplemental Fig. S5). We also see chemical shift changes in non-surface exposed residues that are close to or are in contact with the groove.
NMR samples were buffered in 20 mM sodium phosphate (pH 7.5), 150 mM NaCl, 5 mM DTT, 5 mM β-mercaptoethanol, 2 mM TCEP, and 10 μM ZnSO4. The protein concentration was between 200 and 300 μM for all samples. The data were collected at 25 °C on Bruker spectrometers equipped with cryoprobes and operating at 500, 600, or 800 MHz. The assignment of backbone TTD–PHD resonances was accomplished using the ABACUS method ([29]) for which standard backbone and ^15N-edited NOESY spectra were collected using ^15N/^13C/^2H- or ^15N/^13C-labeled protein. All 3D experiments were acquired using non-uniform sampling and processed using the software MDDGUI ([30]) or qMDD ([31]). ^15N-Labeled TTD–PHD was used to acquire ^15N T1 and T2 relaxation and ^1H-^15N heteronuclear NOE measurements ([32]) collected using standard Bruker pulse schemes in an interleaved manner. For T1 measurements, the variable delay was set to 0.1, 0.4, 0.8, 1.5, 2.0, 2.5, 3.5, and 5 s. For T2 measurements, the variable delay was set to 16, 32, 48, 64, 80, 96, 128, and 144 ms. The D1 was 3 s for all experiments. Reported values were the average from two measurements. All spectra were processed using NMRPipe ([33]) and analyzed with SPARKY ([34]).
Figure S5 (related to Fig. 4)
Binding of BPC in the groove of TTD. […]
labeled (at the N-terminus) H3K9me3(1-25) peptide, (B) ITC, and (C) DSF. (D) KD estimates of BPC bind-ing based on I211 and Y239 amide peak movement (where Δ(ppm) = ((ΔδHN)2 + (ΔδN/6.5)2 )1⁄2) in (1H-15N) HSQC spectra when the TTD is titrated with BPC. […]
as a function of TTD sequence resulting from BPC (blue) or PBR peptide (red) binding. (F) HSQC overlays […]
ment:protein), and PBR peptide ratios (bottom spectrum - from 1:1 to 5:1 peptide:protein). The protein con-centration was ~250 µM for all NMR experiments, and the DMSO concentration was 5% for NMR titrations […]
(1 picture or pasted object on this page, not shown here)

solubility (statement) = type: physicochemical

N=C(N)N1CCC(Cc2ccccc2)CC1 [BPC, 4-benzylpiperidine-1-carboximidamide]
binding site on TTD by amide peak movement (TTD (UHRF1_121–286); (1H-15N) HSQC spectra of TTD): occurs in the groove | Kd (TTD (UHRF1_121–286); residue I211, read-out: KD estimate from I211 amide peak movement): 78 µM | Kd (TTD (UHRF1_121–286); residue Y239, read-out: KD estimate from Y239 amide peak movement): 76 µM | solubility (solubility (statement)): highly soluble
